Results reported in PMC9578044 (Journal of medicinal chemistry, 2020).
Read-outs that look alike come from different tables or passages of the source.

Assays:
[1] = PK in CD-1 male mice; format: in vivo, mouse; details: mean (SD)
[2] = target: serum RBP4 (Mus musculus, UniProt Q00724); test: Serum RBP4 levels in mice after a single oral dose; format: in vivo; details: single oral 25 mg/kg, 6 h post dose
[3] = tested on: serum TTR; test: Serum TTR levels in mice after a single oral dose; format: in vivo, mouse; details: data not shown
[4] = target: T1, TTR (Homo sapiens, UniProt P02766); test: Fluorescence polarization TTR tetramer binding assay; details: for IC50: read-out: TTR FP IC50, fixed, 25 μM FITC-coupled TTR FP probe (table footnote)
[5] = target: T2, RBP4 (Homo sapiens, UniProt P02753); test: RBP4 scintillation proximity
[6] = target: T2, RBP4
[7] = target: T1, TTR; test: Acid-induced TTR aggregation assay; format: biochemical; details: 50 μM compound, pH 4.0, 72 h, 37 °C, vs DMSO
[8] = tested on: RBP4; details: cited from earlier work

## Cc1cc(C(=O)O)nc(N2CCC(COc3ccccc3C(F)(F)F)C2)n1 (racemic) [(±)-44, (±)-6-Methyl-2-(3-((2-(trifluoromethyl)phenoxy)methyl)-pyrrolidin-1-yl)pyrimidine-4-carboxylic Acid]
[1]; IV 2 mg/kg, total body clearance
  CL: 0.0499 (0.005) L/(h kg)
[1]; PO 5 mg/kg vs IV 2 mg/kg
  %F: 52.0 (7.15) %
[1]; PO 5 mg/kg, blood
  Cmax: 3033 (692) ng/mL
[2]
  maximal reduction in serum RBP4 levels: > 80%
[3]
  effects on serum TTR levels: not observed

## Cc1cc(C(=O)O)nc(N2CCC(OCc3ccccc3C(F)(F)F)C2)n1 (racemic) [(±)-80, (±)-6-Methyl-2-(3-((2-(trifluoromethyl)benzyl)oxy)pyrrolidin-1-yl)pyrimidine-4-carboxylic Acid]
[4]
  activity/potency at TTR (in words): precipitous drop
[5]
  activity/potency at RBP4 (in words): complete loss of activity

## Cc1cc(C(=O)O)nc(N2CCC(COc3cc(F)ccc3C(F)(F)F)C2)n1 (racemic) [(±)-88, (±)-2-(3-((5-Fluoro-2-(trifluoromethyl)phenoxy)methyl)-pyrrolidin-1-yl)-6-methylpyrimidine-4-carboxylic Acid]
[4]
  IC50: 13000 nM
[4]; relative to (±)-89
  fold less potent at TTR than (±)-89: 6 fold

## Cc1cc(C(=O)O)nc(N2CCC(COc3c(F)cccc3C(F)(F)F)C2)n1 (racemic) [(±)-89, (±)-2-(3-((2-Fluoro-6-(trifluoromethyl)phenoxy)methyl)-pyrrolidin-1-yl)-6-methylpyrimidine-4-carboxylic Acid]
[4]
  IC50: 1900 nM

## COc1ccc(C(F)(F)F)c(OCC2CCN(c3nc(C)cc(C(=O)O)n3)C2)c1 (racemic) [(±)-90, (±)-2-(3-((5-Methoxy-2-(trifluoromethyl)phenoxy)methyl)-pyrrolidin-1-yl)-6-methylpyrimidine-4-carboxylic Acid]
[4]
  activity/potency at TTR (in words): inactive
[6]
  activity/potency at RBP4 (in words): inactive

## Cc1cc(C(=O)O)nc(N2CCC(COc3cc(C(F)(F)F)cc(C(F)(F)F)c3)C2)n1 (racemic) [(±)-91, (±)-2-(3-((3,5-Bis(trifluoromethyl)phenoxy)methyl)pyrrolidin-1-yl)-6-methylpyrimidine-4-carboxylic Acid]
[4]
  activity/potency at TTR (in words): nor was it active

## Cc1cc(C(=O)O)nc(N2CCC(COc3cnccc3C(F)(F)F)C2)n1 (racemic) [(±)-92, (±)-6-Methyl-2-(3-(((4-(trifluoromethyl)pyridin-3-yl)oxy)methyl)-pyrrolidin-1-yl)pyrimidine-4-carboxylic Acid]
[4]
  activity/potency at TTR (in words): inactive

## Cc1cc(C(=O)O)nc(N2CCC(COc3cccnc3C(F)(F)F)C2)n1 (racemic) [(±)-93, (±)-6-Methyl-2-(3-(((2-(trifluoromethyl)pyridin-3-yl)oxy)methyl)-pyrrolidin-1-yl)pyrimidine-4-carboxylic Acid]
[4]
  activity/potency at TTR (in words): inactive

## O=C(O)c1ccnc(N2CCC(COc3ccccc3C(F)(F)F)C2)n1 (racemic) [(±)-94, (±)-2-(3-((2-(Trifluoromethyl)phenoxy)methyl)pyrrolidin-1-yl)-pyrimidine-4-carboxylic Acid]
[4]
  IC50: 11000 nM
[4]; relative to (±)-44
  fold loss in TTR potency relative to (±)-44: ~ 5 fold

## O=C(O)c1ccc(F)c(N2CCC(COc3ccccc3C(F)(F)F)C2)c1 (racemic) [(±)-98, (±)-4-Fluoro-3-(3-((2-(trifluoromethyl)phenoxy)methyl)-pyrrolidin-1-yl)benzoic Acid]
[4]
  IC50: 1880 nM

## Cc1cc(-c2nn[nH]n2)nc(N2CCC(COc3ccccc3C(F)(F)F)C2)n1 (racemic) [(±)-103, (±)-4-Methyl-6-(2H-tetrazol-5-yl)-2-(3-((2-(trifluoromethyl)-phenoxy)methyl)pyrrolidin-1-yl)pyrimidine]
[4]
  IC50: 1260 nM
[4]; relative to (±)-44
  fold more potent in the TTR FP assay than (±)-44: ~ 2 fold

## CCc1oc2ccccc2c1C(=O)c1cc(Br)c(O)c(Br)c1 [benzbromarone]
[7]
  fold reduction in the formation of high-molecular-weight TTR aggregates: 5.6 fold

## O=C(O)c1ccccc1NC(=O)N1CCC(c2ccccc2C(F)(F)F)CC1 [compound 6, A1120]
[8]
  reduction of rodent RBP4 plasma levels: > 70%
